Data published in patent US4794122A, “Novel benzimidazolyl-thiomethyl-benzothiazoles” (Uclaf; Roussel, priority 1986, dated 1988).
pIC50: −log10 of the molar value.

These molecules were tested against T1, 5-lipoxygenase (Rattus norvegicus, UniProt P12527) (assay: Inhibition of Ca++ ionophore (A23187)-induced release of 5-lipoxygenase products (leukotriene B4 and 5-HETE) from [14C]-arachidonic acid prelabelled rat peritoneal neutrophils). Settings: A23187-induced release of leukotriene B4 and 5-HETE, determined graphically from dose response curves, read-out: micro molecular concentration of the compounds causing a 50% inhibition of the control response for 5-lipoxygenase.
T1 construct: prelabelled rat peritoneal neutrophils; endogenous in cells; host or cells: rat peritoneal neutrophils
T1 sequence (P12527 1-673): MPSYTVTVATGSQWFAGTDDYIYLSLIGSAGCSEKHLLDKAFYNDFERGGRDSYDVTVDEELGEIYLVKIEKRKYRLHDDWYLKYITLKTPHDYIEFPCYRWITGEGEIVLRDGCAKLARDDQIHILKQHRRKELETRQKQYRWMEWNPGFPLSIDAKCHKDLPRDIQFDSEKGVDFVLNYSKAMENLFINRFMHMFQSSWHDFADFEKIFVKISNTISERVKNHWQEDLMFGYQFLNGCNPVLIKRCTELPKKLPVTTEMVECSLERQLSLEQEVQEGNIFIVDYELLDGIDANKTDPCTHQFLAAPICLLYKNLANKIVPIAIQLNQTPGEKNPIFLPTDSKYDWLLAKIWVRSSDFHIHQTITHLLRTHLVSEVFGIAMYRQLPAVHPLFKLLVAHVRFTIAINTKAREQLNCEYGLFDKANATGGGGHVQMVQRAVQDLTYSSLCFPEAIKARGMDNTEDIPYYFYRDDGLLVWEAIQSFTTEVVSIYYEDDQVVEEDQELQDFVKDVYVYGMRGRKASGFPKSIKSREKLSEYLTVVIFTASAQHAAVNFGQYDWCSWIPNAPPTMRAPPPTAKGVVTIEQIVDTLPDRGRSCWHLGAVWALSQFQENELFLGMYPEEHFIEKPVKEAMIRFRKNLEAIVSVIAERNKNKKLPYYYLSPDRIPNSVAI
Format: cell-based
Description: Inhibition of Ca^++ ionophore (A23187)-induced release of 5-lipoxygenase products (leukotriene B4 and 5-HETE) from [^14 C]-arachidonic acid prelabelled rat peritoneal neutrophils was determined by a modification of the method of Ahnfelt-Ronne et al [Biochemical Pharmacology, Vol. 31, (1982), No. 16, p. 2619-2624].

**Q.** With `c1ccc2[nH]c(SCc3nc4ccccc4s3)nc2c1` [Example 1, 2-(1H-benzimidazol-2-yl-thiomethyl)-benzothiazole] as the molecule, how does the pIC50 read?
**A.** 5.46

**Q.** How did the pIC50 turn out when `Clc1ccc2[nH]c(SCc3nc4ccccc4s3)nc2c1` [Example 2, 2-(5-chloro-1H-benzimidazol-2-yl-thiomethyl)benzothiazole] was run?
**A.** 6.23

**Q.** `Clc1cc2nc(SCc3nc4ccccc4s3)[nH]c2cc1Cl` [Example 3, 2-(5,6-dichloro-1H-benzimidazol-2-yl-thiomethyl)benzothiazole] was tested. Which pIC50 did it give?
**A.** 6.64
